Experimental data: patent publication US10995177B2 (priority 2018, dated 2021)

Experiments:
K. pneumoniae 9170 [1] = assay: In vivo efficacy (ED50/ED95) in bacteria-caused lung infection mouse model; parameters: species or system mice; conditions: Klebsiella pneumoniae, 9170, ip
Protocol: In this regard, immunosuppressed mice (7 weeks old) were used for the following in vivo studies. Immunosuppression was induced by intraperitoneal injection of 200 mg/kg cyclophosphamide 4 days prior to infection. The mice were anesthetized by intraperitoneal injection of 1% pentobarbital (40 mg/kg, Sigma). The mice were then infected with K. pneumoniae 9170 to determine the minimum lethal dose for subsequent effective does and efficacy testing. Overnight cultures of K. pneumoniae 9170 were harvested and suspended in PBS. Subsequently, the cyclophosphamide-pretreated mice were intranasally injected with 25.0 μL of the bacterial suspension at designated doses (e.g., 1.0×10^8, 2.5×10^8, 5×10^8, 1.0×10^9, 2.0×10^9 CFU/mL, six mice per group). The minimum lethal dose (LD), the lowest concentration sufficient to cause 100% mortality, was determined from the survival rate of mice at 5 days post-infection by the BLISS method.
The effective doses ED50 and ED95 doses of the respective polymers and imipenem for comparison, were tested using a bacteria-caused lung infection mouse model as follows. Firstly, a bacterial suspension with the minimum lethal dose (25.0 μL) was introduced to the above described cyclophosphamide-pretreated mice intranasally. […] The number of surviving mice in each group was recorded for 5.0 day to estimate ED50 and ED95 via the BLISS method.

K. pneumoniae 9170 [2] = assay: Resistance development by serial passaging at sub-lethal concentrations; format: cell-based, Klebsiella pneumoniae
Protocol: To test bacterial resistance and resistance prevention, a sub-lethal dose (so as to not kill all bacteria) of the respective antimicrobials was repeatedly applied to K. pneumoniae samples for 24 hours at each passage, wherein the bacteria were allowed to replicate and/or mutate. MIC values of the respective antimicrobials were then measured after each repetition to monitor MIC changes. An increase in MIC value indicates development of resistance in the bacteria. In particular, samples of K. pneumoniae 9170 bacteria were first exposed to the respective antimicrobials (e.g., All polymers having Structures I, IV and V, imipenem and levofloxacin) for the determination of MICs as described above. Subsequently, 50 μL of bacteria from wells of 0.5×MIC were harvested and grown overnight, and then subjected to MIC determination for up to 20 similar serial passages (e.g., 20 single applications once a day for 20 days).
Unfortunately, antibiotic resistance has raised a global concern over the past few years.

[3] = tested on: MDR clinical isolates of K. pneumoniae, E. coli, A. baumannii, P. aeruginosa, E. faecium and MRSA; assay: MIC by broth microdilution against different types and strains of MDR clinically isolated bacteria; format: cell-based; conditions: Gram-negative and Gram-positive MDR clinical isolates
Protocol: The MICs of the guanidinium functionalized polymers and the respective antibiotics against the clinical isolates were measured via the broth microdilution method. In accordance with the broth microdilution method, the MDR microbes including one or more strains of K. pneumoniae, E. coli, A. baumannii, P. aeruginosa, E. coli, E. faecium, and MRSA were harvested in mid exponential growth phase after grown overnight in Mueller-Hinton (MH) agar plates at 37° C. The antimicrobial agents were prepared in MH broth (MHB) at various concentrations. The bacteria suspensions were then diluted with phosphate-buffer saline (PBS, PH 7.4) to adjust the turbidity approximately to the Standard McFarland 0.6, which corresponds to the concentration of 1×10^8 colony-forming unit (CFU)/mL, after which the bacteria suspension was further diluted by 100-fold with MHB (1×10^6 CFU/mL). Subsequently, equal volumes (100 microliters (μL)) of bacterial suspension and agent solution prepared previously were mixed in each well of a 96-well plate and incubated for 18 h at 37° C. Broth containing bacteria alone was employed as the negative control, and each MIC was tested in triplicate.
To facilitate comparison, imipenem and vancomycin, typical first-line therapies against Gram-negative and Gram-positive pathogens, were employed as standards or control antibiotics.

Structure (SMILES)	ED50 (K. pneumoniae 9170 [1])	increase of MIC (K. pneumoniae 9170 [2]; by the 11th passage)	increase of MIC (K. pneumoniae 9170 [2]; by the 20th passage)	increase of MIC (K. pneumoniae 9170 [2]; by the 7th passage)	spectrum of antibacterial activity [3]
C[C@@H](O)[C@H]1C(=O)N2C(C(=O)O)=C(SCCN=CN)C[C@H]12 [imipenem]	5.93 mg/kg	2 times	4 fold		
C[C@H]1COc2c(N3CCN(C)CC3)c(F)cc3c(=O)c(C(=O)O)cn1c23 [levofloxacin]			16 fold	2 times	
CN[C@H](CC(C)C)C(=O)N[C@H]1C(=O)N[C@@H](CC(N)=O)C(=O)N[C@H]2C(=O)N[C@H]3C(=O)N[C@H](C(=O)N[C@H](C(=O)O)c4cc(O)cc(O)c4-c4cc3ccc4O)[C@H](O)c3ccc(c(Cl)c3)Oc3cc2cc(c3O[C@@H]2O[C@H](CO)[C@@H](O)[C@H](O)[C@H]2O[C@H]2C[C@](C)(N)[C@H](O)[C@H](C)O2)Oc2ccc(cc2Cl)[C@H]1O [vancomycin]					only demonstrated efficacy against Gram-positive strains
